# Assays:
# U-87 MG [1] = test: Cytotoxicity against human U-87 MG cells assessed as survival rate at 10 uM measured after 72 hrs by MTT assay relative to control; assay type: functional, U-87MG ATCC; details: read-out: Survival
# MCF7 [2] = test: Cytotoxicity against human MCF7 cells assessed as survival rate at 10 uM measured after 72 hrs by MTT assay relative to control; assay type: functional; details: read-out: Survival
# HCT-116 [3] = test: Cytotoxicity against human HCT-116 cells assessed as survival rate at 10 uM measured after 72 hrs by MTT assay relative to control; assay type: functional; details: read-out: Survival
# K562 = test: Antitumor activity against human K562 cells; assay type: functional, cell-based
# HT-29 = test: Antitumor activity against human HT-29 cells; assay type: functional, cell-based
# U-87 MG [4] = test: Cytotoxicity against human U-87 MG cells assessed as inhibition of cell growth incubated for 72 hrs by MTT assay; assay type: functional, cell-based, U-87MG ATCC
# U-87 MG [5] = test: Cytotoxicity against human U-87 MG cells assessed as inhibition of cell growth at 10 uM measured after 72 hrs by MTT assay relative to control; assay type: functional, U-87MG ATCC
# HeLa [6] = test: Cytotoxicity against human HeLa cells assessed as inhibition of cell growth incubated for 72 hrs by MTT assay; assay type: functional, cell-based
# MGC-803 [7] = test: Cytotoxicity against human MGC-803 cells assessed as inhibition of cell growth at 10 uM measured after 72 hrs by MTT assay relative to control; assay type: functional
# HeLa [8] = test: Cytotoxicity against human HeLa cells assessed as inhibition of cell growth at 10 uM measured after 72 hrs by MTT assay relative to control; assay type: functional
# MCF7 [9] = test: Cytotoxicity against human MCF7 cells assessed as inhibition of cell growth incubated for 72 hrs by MTT assay; assay type: functional, cell-based; details: MCF7, 72 h
# MKN-45 [10] = test: Cytotoxicity against human MKN-45 cells assessed as inhibition of cell growth at 10 uM measured after 72 hrs by MTT assay relative to control; assay type: functional
# [11] = Cytotoxicity against HHL-5 cells assessed as inhibition of cell growth incubated for 72 hrs by MTT assay; assay type: toxicity, cell-based; details: human
# MCF7 [12] = test: Cytotoxicity against human MCF7 cells assessed as inhibition of cell growth at 10 uM measured after 72 hrs by MTT assay relative to control; assay type: functional
# MKN-45 [13] = test: Cytotoxicity against human MKN-45 cells assessed as inhibition of cell growth incubated for 72 hrs by MTT assay; assay type: functional, cell-based; details: MKN-45, 72 h
# HCT-116 [14] = test: Cytotoxicity against human HCT-116 cells assessed as inhibition of cell growth incubated for 72 hrs by MTT assay; assay type: functional, cell-based; details: HCT-116, 72 h
# MGC-803 [15] = test: Cytotoxicity against human MGC-803 cells assessed as inhibition of cell growth incubated for 72 hrs by MTT assay; assay type: functional, cell-based; details: MGC-803, 72 h
# HCT-116 [16] = test: Cytotoxicity against human HCT-116 cells assessed as inhibition of cell growth at 10 uM measured after 72 hrs by MTT assay relative to control; assay type: functional
# A549 = test: Antitumor activity against human A549 cells; assay type: functional, cell-based
# P388 = test: Antitumor activity against mouse P388 cells; assay type: functional, cell-based
structure (smiles),measurement,setting,value
COc1ccc(C2=CC(=O)O/C2=C\c2ccc(C(C)(C)C)cc2)cc1,viability at 10 µM,U-87 MG [1],109%
same,viability at 10 µM,MCF7 [2],60.2%
same,viability at 10 µM,HCT-116 [3],98.9%
CC(C)=CCc1cc(/C=C2\OC(=O)C=C2c2ccc(O)cc2)ccc1O,IC50,K562,12.8 µM
O=C1O/C(=C\c2ccc(O)c(Br)c2)C(c2ccc(O)c(Br)c2)=C1Cl,IC50,HT-29,2.6 µM
COc1ccc(C2=CC(=O)O/C2=C\c2ccc3[nH]ccc3c2)cc1,viability at 10 µM,U-87 MG [1],39.5%
same,IC50,U-87 MG [4],7.8 µM
same,inhibition at 10 µM,U-87 MG [5],> 50%
same,IC50,HeLa [6],0.2 µM
same,inhibition at 10 µM,MGC-803 [7],> 50%
same,inhibition at 10 µM,HeLa [8],> 50%
same,IC50,MCF7 [9],1.3 µM
same,viability at 10 µM,MCF7 [2],25.8%
same,inhibition at 10 µM,MKN-45 [10],> 50%
same,viability at 10 µM,HCT-116 [3],23.9%
same,IC50 at 72 h,[11],1.3 µM
same,inhibition at 10 µM,MCF7 [12],> 50%
same,IC50,MKN-45 [13],0.2 µM
same,IC50,HCT-116 [14],0.3 µM
same,IC50,MGC-803 [15],0.9 µM
same,inhibition at 10 µM,HCT-116 [16],> 50%
O=C1C=C(c2ccccc2)/C(=C/c2ccc(C(=O)O)cc2)O1,viability at 10 µM,U-87 MG [1],96.5%
same,viability at 10 µM,MCF7 [2],87.3%
same,viability at 10 µM,HCT-116 [3],105%
O=C1O/C(=C\c2ccc(O)c(Br)c2)C(c2ccc(O)cc2)=C1Cl,IC50,HT-29,3.1 µM
same,IC50,A549,3.1 µM
same,IC50,P388,3.1 µM
CC1(C)CCc2cc(/C=C3\OC(=O)C=C3c3ccc(O)cc3)ccc2O1,IC50,K562,10.1 µM
COc1ccc(C2=CC(=O)O/C2=C\c2ccc(O)c(OC)c2)cc1,viability at 10 µM,U-87 MG [1],37.8%
same,IC50,U-87 MG [4],4.5 µM
same,inhibition at 10 µM,U-87 MG [5],> 50%
same,IC50,HeLa [6],0.6 µM
same,inhibition at 10 µM,MGC-803 [7],> 50%
same,inhibition at 10 µM,HeLa [8],> 50%
same,IC50,MCF7 [9],0.1 µM
same,viability at 10 µM,MCF7 [2],25.2%
same,inhibition at 10 µM,MKN-45 [10],> 50%
same,viability at 10 µM,HCT-116 [3],24.1%
same,IC50 at 72 h,[11],1.9 µM
same,inhibition at 10 µM,MCF7 [12],> 50%
same,IC50,MKN-45 [13],0.3 µM
same,IC50,HCT-116 [14],0.4 µM
same,IC50,MGC-803 [15],5.4 µM
same,inhibition at 10 µM,HCT-116 [16],> 50%
O=C1O/C(=C\c2cc(Br)c(O)c(Br)c2)C(c2cc(Br)c(O)c(Br)c2)=C1Cl,IC50,HT-29,8 µM
same,IC50,A549,8 µM
same,IC50,P388,8 µM
COc1ccc(/C=C2\OC(=O)C=C2c2ccc(OC)cc2)cc1,viability at 10 µM,U-87 MG [1],39.1%
same,IC50,U-87 MG [4],11.9 µM
same,inhibition at 10 µM,U-87 MG [5],> 50%
same,IC50,HeLa [6],2.2 µM
same,inhibition at 10 µM,MGC-803 [7],> 50%
same,inhibition at 10 µM,HeLa [8],> 50%
same,IC50,MCF7 [9],4.3 µM
same,viability at 10 µM,MCF7 [2],25.9%
same,inhibition at 10 µM,MKN-45 [10],> 50%
same,viability at 10 µM,HCT-116 [3],26.5%
same,IC50 at 72 h,[11],3.9 µM
same,inhibition at 10 µM,MCF7 [12],> 50%
same,IC50,MKN-45 [13],5.2 µM
same,IC50,HCT-116 [14],3.7 µM
same,IC50,MGC-803 [15],6.2 µM
same,inhibition at 10 µM,HCT-116 [16],> 50%
Cc1ccc(/C=C2\OC(=O)C=C2c2ccccc2)cc1,viability at 10 µM,U-87 MG [1],101%
same,viability at 10 µM,MCF7 [2],87.4%
same,viability at 10 µM,HCT-116 [3],104%
COc1ccc(C2=CC(=O)O/C2=C\c2ccc(NC(C)=O)cc2)cc1,viability at 10 µM,U-87 MG [1],39.2%
same,IC50,U-87 MG [4],2.5 µM
same,inhibition at 10 µM,U-87 MG [5],> 50%
same,IC50,HeLa [6],0.7 µM
same,inhibition at 10 µM,MGC-803 [7],> 50%
same,inhibition at 10 µM,HeLa [8],> 50%
same,IC50,MCF7 [9],6.1 µM
same,viability at 10 µM,MCF7 [2],30.4%
same,inhibition at 10 µM,MKN-45 [10],> 50%
same,viability at 10 µM,HCT-116 [3],32.5%
same,IC50 at 72 h,[11],5.5 µM
same,inhibition at 10 µM,MCF7 [12],> 50%
same,IC50,MKN-45 [13],1 µM
same,IC50,HCT-116 [14],2.2 µM
same,IC50,MGC-803 [15],3 µM
same,inhibition at 10 µM,HCT-116 [16],> 50%
O=C1C=C(c2ccccc2)/C(=C/c2ccc3[nH]ccc3c2)O1,viability at 10 µM,U-87 MG [1],103%
same,viability at 10 µM,MCF7 [2],60.2%
same,viability at 10 µM,HCT-116 [3],98.9%

# From ChEMBL document CHEMBL6078667, “Synthesis, Biological Evaluation, and Mechanistic Insights of Rubrolide Analogues as Antitumor Agents” (J Nat Prod, 2024)
